Assays:
[1] = biological target: Dual specificity tyrosine-phosphorylation-regulated kinase 1A (Rattus norvegicus) (UniProt Q63470); assay: Inhibition of recombinant rat DYRK1A kinase domain expressed in bacteria assessed as residual activity at 10 uM using KKISGRLSPIMTEQ as substrate in presence of [gamma-33P]ATP
MDA-MB-435 = assay: Cytotoxicity against human MDA-MB-435 cells assessed as cell growth at 10 uM after 48 hrs by SRB assay relative to control; type: functional; conditions: MDA-MB-435, 48 h, read-out: Activity
Sus scrofa domesticus = species on record: Sus scrofa domesticus; assay: Inhibition of domestic porcine brain full length […] assessed as residual activity at 10 uM using RRKHAAIGSpAYSITA as substrate in presence of [gamma-33P]ATP
UO-31 = assay: Cytotoxicity against human UO31 cells assessed as cell growth at 10 uM after 48 hrs by SRB assay relative to control; type: functional; conditions: UO-31, 48 h, read-out: Activity
[2] = biological target: Glycogen synthase kinase-3 (Sus scrofa) (UniProt B2LUN4+I6LNT8); assay: Inhibition of domestic porcine brain full length GSK-3alpha/beta assessed as residual activity at 10 uM using GS-1 as substrate in presence of [gamma-33P]ATP; conditions: Sus scrofa domesticus
SN12C = assay: Cytotoxicity against human SN12C cells assessed as cell growth at 10 uM after 48 hrs by SRB assay relative to control; type: functional; conditions: read-out: Activity
HOP-62 = assay: Cytotoxicity against human HOP62 cells assessed as cell growth at 10 uM after 48 hrs by SRB assay relative to control; type: functional; conditions: HOP-62, 48 h, read-out: Activity
SW-620 = assay: Cytotoxicity against human SW620 cells assessed as cell growth at 10 uM after 48 hrs by SRB assay relative to control; type: functional; conditions: SW-620, 48 h, read-out: Activity
[3] = biological target: Dual specificity tyrosine-phosphorylation-regulated kinase 1A (Rattus norvegicus, UniProt Q63470); assay: Inhibition of recombinant rat DYRK1A kinase domain expressed in bacteria using KKISGRLSPIMTEQ as substrate in presence of [gamma-33P]ATP
MCF7 = assay: Cytotoxicity against human MCF7 cells assessed as cell growth at 10 uM after 48 hrs by SRB assay relative to control; type: functional; conditions: MCF7, 48 h, read-out: Activity
[4] = biological target: T1, Receptor-interacting serine/threonine-protein kinase 3 (Homo sapiens, UniProt Q9Y572); assay: Inhibition of recombinant full length human RIPK3 expressed in baculovirus infected Sf9 insect cells assessed as residual activity at 10 uM using MBP as substrate in presence of [gamma-33P]ATP
Target sequence in this assay (Q9Y572 whole entry, looked up): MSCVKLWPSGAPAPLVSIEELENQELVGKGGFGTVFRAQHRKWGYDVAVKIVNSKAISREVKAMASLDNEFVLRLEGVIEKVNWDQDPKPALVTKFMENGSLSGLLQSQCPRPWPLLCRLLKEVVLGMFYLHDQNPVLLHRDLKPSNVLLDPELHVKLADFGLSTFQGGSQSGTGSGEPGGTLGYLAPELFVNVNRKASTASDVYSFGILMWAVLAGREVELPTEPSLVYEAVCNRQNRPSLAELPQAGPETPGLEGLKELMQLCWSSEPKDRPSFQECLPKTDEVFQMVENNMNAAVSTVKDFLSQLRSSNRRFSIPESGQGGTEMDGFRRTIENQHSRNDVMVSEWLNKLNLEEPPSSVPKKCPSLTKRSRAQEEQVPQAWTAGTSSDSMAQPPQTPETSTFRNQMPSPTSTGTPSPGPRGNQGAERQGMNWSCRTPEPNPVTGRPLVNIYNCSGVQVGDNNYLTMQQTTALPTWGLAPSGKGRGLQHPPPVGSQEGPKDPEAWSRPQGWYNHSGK

Hs-578T = assay: Cytotoxicity against human Hs 578T cells assessed as cell growth at 10 uM after 48 hrs by SRB assay relative to control; type: functional; conditions: read-out: Activity
[5] = biological target: Serine/threonine-protein kinase pim-1 (Homo sapiens, UniProt P11309); assay: Inhibition of recombinant full length human PIM1 expressed in bacteria assessed as residual activity at 10 uM using histone H1 as substrate in presence of [gamma-33P]ATP
Sequence of Serine/threonine-protein kinase pim-1 (P11309 whole entry, looked up): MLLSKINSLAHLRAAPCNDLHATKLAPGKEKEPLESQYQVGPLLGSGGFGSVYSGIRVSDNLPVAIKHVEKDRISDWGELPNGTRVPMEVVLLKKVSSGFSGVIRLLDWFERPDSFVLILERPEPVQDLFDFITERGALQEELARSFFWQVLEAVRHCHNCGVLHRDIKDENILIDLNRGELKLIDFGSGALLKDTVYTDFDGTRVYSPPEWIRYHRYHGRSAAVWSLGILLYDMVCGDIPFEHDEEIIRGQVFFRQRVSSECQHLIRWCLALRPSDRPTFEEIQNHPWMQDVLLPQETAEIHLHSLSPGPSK

[6] = biological target: Cyclin-dependent kinase 5/CDK5 activator 1 (Homo sapiens) (UniProt Q00535+Q15078); assay: Inhibition of recombinant full length human CDK5/p25 expressed in bacteria assessed as residual activity at 10 uM using histone H1 as substrate in presence of [gamma-33P]ATP
Sequence of Cyclin-dependent kinase 5/CDK5 activator 1 (Homo sapiens) (Q00535 whole entry): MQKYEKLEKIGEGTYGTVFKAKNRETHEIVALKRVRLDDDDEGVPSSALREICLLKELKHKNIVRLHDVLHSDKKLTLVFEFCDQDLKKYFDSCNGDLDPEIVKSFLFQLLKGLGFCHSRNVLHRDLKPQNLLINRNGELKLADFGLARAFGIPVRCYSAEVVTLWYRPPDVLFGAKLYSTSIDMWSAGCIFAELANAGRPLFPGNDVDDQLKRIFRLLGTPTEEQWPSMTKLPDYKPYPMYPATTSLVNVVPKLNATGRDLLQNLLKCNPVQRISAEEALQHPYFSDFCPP
Sequence of Cyclin-dependent kinase 5/CDK5 activator 1 (Homo sapiens) (Q15078 99-307 partner limits assumed): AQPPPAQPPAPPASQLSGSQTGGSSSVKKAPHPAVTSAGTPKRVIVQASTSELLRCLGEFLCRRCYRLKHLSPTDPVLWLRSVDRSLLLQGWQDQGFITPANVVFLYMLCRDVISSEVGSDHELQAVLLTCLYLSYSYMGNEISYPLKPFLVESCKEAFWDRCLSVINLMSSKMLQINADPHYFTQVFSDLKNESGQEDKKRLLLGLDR

Aurora kinase B = Aurora kinase B (Homo sapiens, UniProt Q96GD4); assay: Inhibition of recombinant full length human aurora B expressed in baculovirus infected Sf9 insect cells assessed as residual activity at 10 uM using MBP as substrate in presence of [gamma-33P]ATP
Sequence of Aurora kinase B (Q96GD4 whole entry): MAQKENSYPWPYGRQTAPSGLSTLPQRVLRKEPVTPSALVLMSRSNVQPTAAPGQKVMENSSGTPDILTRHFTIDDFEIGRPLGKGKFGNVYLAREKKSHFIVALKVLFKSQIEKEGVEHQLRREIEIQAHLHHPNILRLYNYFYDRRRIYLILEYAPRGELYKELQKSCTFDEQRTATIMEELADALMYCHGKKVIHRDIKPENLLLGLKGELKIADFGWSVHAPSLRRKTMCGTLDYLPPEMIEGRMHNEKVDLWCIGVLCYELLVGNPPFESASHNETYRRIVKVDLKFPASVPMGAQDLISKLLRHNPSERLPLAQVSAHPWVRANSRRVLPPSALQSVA

TK-10 = assay: Cytotoxicity against human TK10 cells assessed as cell growth at 10 uM after 48 hrs by SRB assay relative to control; type: functional; conditions: TK-10, 48 h, read-out: Activity
HCT-116 = assay: Cytotoxicity against human HCT116 cells assessed as cell growth at 10 uM after 48 hrs by SRB assay relative to control; type: functional; conditions: HCT-116, 48 h, read-out: Activity
SK-MEL-28 = assay: Cytotoxicity against human SK-MEL-28 cells assessed as cell growth at 10 uM after 48 hrs by SRB assay relative to control; type: functional; conditions: SK-MEL-28, 48 h, read-out: Activity
OVCAR-5 = assay: Cytotoxicity against human OVCAR5 cells assessed as cell growth at 10 uM after 48 hrs by SRB assay relative to control; type: functional; conditions: OVCAR-5, 48 h, read-out: Activity
SK-MEL-5 = assay: Cytotoxicity against human SK-MEL-5 cells assessed as cell growth at 10 uM after 48 hrs by SRB assay relative to control; type: functional; conditions: SK-MEL-5, 48 h, read-out: Activity
NCI-H460 = assay: Cytotoxicity against human NCI-H460 cells assessed as cell growth at 10 uM after 48 hrs by SRB assay relative to control; type: functional; conditions: NCI-H460, 48 h, read-out: Activity
SK-OV-3 = assay: Cytotoxicity against human SKOV3 cells assessed as cell growth at 10 uM after 48 hrs by SRB assay relative to control; type: functional; conditions: SK-OV-3, 48 h, read-out: Activity
[7] = biological target: CDK2/Cyclin A2 (Homo sapiens) (UniProt P24941+P20248); assay: Inhibition of full length human CDK2/cyclin A assessed as residual activity at 10 uM using histone H1 as substrate in presence of [gamma-33P]ATP; type: protein-complex assay
SF-268 = assay: Cytotoxicity against human SF268 cells assessed as cell growth at 10 uM after 48 hrs by SRB assay relative to control; type: functional; conditions: SF-268, 48 h, read-out: Activity
CDK9/cyclin T1 = CDK9/cyclin T1 (Homo sapiens, UniProt P50750); assay: Inhibition of recombinant full length human CDK9/cyclin T expressed in baculovirus infected Sf9 insect cells using YSPTSPSYSPTSPSYSPTSPSKKKK as substrate in presence of [gamma-33P]ATP
Sequence of CDK9/cyclin T1 (O60563 whole entry): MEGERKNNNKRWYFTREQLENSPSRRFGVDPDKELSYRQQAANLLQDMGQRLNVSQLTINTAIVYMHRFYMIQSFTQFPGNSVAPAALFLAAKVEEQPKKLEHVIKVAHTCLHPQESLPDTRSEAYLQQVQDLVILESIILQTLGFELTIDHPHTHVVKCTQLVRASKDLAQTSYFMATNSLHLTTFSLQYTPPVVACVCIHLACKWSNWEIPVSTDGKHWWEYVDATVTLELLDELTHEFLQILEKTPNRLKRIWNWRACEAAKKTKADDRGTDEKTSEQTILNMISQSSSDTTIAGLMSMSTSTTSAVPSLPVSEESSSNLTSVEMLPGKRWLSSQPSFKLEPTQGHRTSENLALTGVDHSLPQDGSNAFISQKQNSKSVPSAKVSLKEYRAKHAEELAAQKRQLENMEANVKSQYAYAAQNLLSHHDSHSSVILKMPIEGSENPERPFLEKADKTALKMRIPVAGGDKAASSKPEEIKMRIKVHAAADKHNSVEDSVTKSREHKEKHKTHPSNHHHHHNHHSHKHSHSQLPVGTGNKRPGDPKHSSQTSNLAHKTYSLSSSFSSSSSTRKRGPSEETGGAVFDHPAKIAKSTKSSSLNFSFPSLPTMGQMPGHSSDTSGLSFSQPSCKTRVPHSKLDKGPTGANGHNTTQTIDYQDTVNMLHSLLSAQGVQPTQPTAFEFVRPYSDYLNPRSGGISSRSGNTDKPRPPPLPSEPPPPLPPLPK
Sequence of CDK9/cyclin T1 (P50750 whole entry): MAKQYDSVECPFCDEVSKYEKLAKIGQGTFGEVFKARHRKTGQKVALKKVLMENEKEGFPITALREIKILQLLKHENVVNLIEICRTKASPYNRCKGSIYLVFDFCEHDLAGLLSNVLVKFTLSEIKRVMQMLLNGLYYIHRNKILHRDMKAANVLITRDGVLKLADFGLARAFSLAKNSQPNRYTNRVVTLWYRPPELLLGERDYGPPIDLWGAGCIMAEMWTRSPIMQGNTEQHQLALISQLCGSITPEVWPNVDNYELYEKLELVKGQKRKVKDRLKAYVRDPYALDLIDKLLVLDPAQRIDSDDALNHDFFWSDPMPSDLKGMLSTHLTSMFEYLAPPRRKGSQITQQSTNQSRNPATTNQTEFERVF

SNB-75 = assay: Cytotoxicity against human SNB75 cells assessed as cell growth at 10 uM after 48 hrs by SRB assay relative to control; type: functional; conditions: SNB-75, 48 h, read-out: Activity
SR = assay: Cytotoxicity against human SR cells assessed as cell growth at 10 uM after 48 hrs by SRB assay relative to control; type: functional; conditions: read-out: Activity
[8] = biological target: T1, Receptor-interacting serine/threonine-protein kinase 3; assay: Inhibition of recombinant full length human RIPK3 expressed in baculovirus infected Sf9 insect cells using MBP as substrate in presence of [gamma-33P]ATP
Target sequence in this assay (Q9Y572 whole entry): as the sequence (Q9Y572 whole entry, looked up) above

LOX IMVI = assay: Cytotoxicity against human LOXIMVI cells assessed as cell growth at 10 uM after 48 hrs by SRB assay relative to control; type: functional; conditions: read-out: Activity
RPMI-8226 = assay: Cytotoxicity against human RPMI8226 cells assessed as cell growth at 10 uM after 48 hrs by SRB assay relative to control; type: functional; conditions: RPMI-8226, 48 h, read-out: Activity
HL-60(TB) = assay: Cytotoxicity against human HL-60(TB) cells assessed as cell growth at 10 uM after 48 hrs by SRB assay relative to control; type: functional; conditions: HL-60, 48 h, read-out: Activity

| Structure (SMILES) | Activity [1] [%] | growth at 10 µM (MDA-MB-435) [%] | Activity (Sus scrofa domesticus) [%] | growth at 10 µM (UO-31) [%] | Activity [2] [%] | growth at 10 µM (SN12C) [%] | growth at 10 µM (HOP-62) [%] | growth at 10 µM (SW-620) [%] | IC50 [3] [nM] | growth at 10 µM (MCF7) [%] | Activity [4] [%] | growth at 10 µM (Hs-578T) [%] | Activity [5] [%] | Activity [6] [%] | Activity (Aurora kinase B) [%] | growth at 10 µM (TK-10) [%] | growth at 10 µM (HCT-116) [%] | growth at 10 µM (SK-MEL-28) [%] | growth at 10 µM (OVCAR-5) [%] | growth at 10 µM (SK-MEL-5) [%] | further results |
| --- | --- | --- | --- | --- | --- | --- | --- | --- | --- | --- | --- | --- | --- | --- | --- | --- | --- | --- | --- | --- | --- |
| Cn1cc(C2=C(c3cn(CCCCCC(=O)O)c4ccccc34)C(=O)N(O)C2=O)c2ccccc21 | 22 | 102 | 80 | 63.2 | 2 | 95.2 | 92 | 98.9 | 1000 | 90 | 106 | 102 | 64 | 34 | 71 | 107 | 98.4 | 106 | 96.3 | 97.8 | growth at 10 µM (NCI-H460): 108%; growth at 10 µM (SK-OV-3): 99.8%; Activity [7]: 36%; growth at 10 µM (SF-268): 99.5%; IC50 (CDK9/cyclin T1): 700 nM; growth at 10 µM (SNB-75): 86.5%; growth at 10 µM (SR): 89.6%; IC50 [8]: > 10000 nM; growth at 10 µM (LOX IMVI): 80%; growth at 10 µM (RPMI-8226): 96.8%; growth at 10 µM (HL-60(TB)): 103% |
| O=C(O)CCCCCn1cc(C2=C(c3c[nH]c4ccccc34)C(=O)N(O)C2=O)c2ccccc21 | 24 | 102 | 83 | 61 | 8 | 105 | 86.8 | 95.3 | 2000 | 102 | 100 | 103 | 53 | 60 | 63 | 99 | 98.9 | 111 | 106 | 93.9 | growth at 10 µM (NCI-H460): 103%; growth at 10 µM (SK-OV-3): 81%; Activity [7]: 66%; growth at 10 µM (SF-268): 98.3%; IC50 (CDK9/cyclin T1): 2000 nM; growth at 10 µM (SNB-75): 86%; growth at 10 µM (SR): 100%; IC50 [8]: > 10000 nM; growth at 10 µM (LOX IMVI): 80.4%; growth at 10 µM (RPMI-8226): 101%; growth at 10 µM (HL-60(TB)): 108% |
| Cn1cc(C2=C(c3cn(CCCCCC#N)c4ccccc34)C(=O)N(O)C2=O)c2ccccc21 | 24 | 68.1 | 88 | 50.8 | 8 | 102 | 89.6 | 101 | 5000 | 77.7 | 105 | 93.5 | 52 | 49 | 71 | 116 | 85.1 | 109 | 117 | 78.8 | growth at 10 µM (NCI-H460): 99.3%; growth at 10 µM (SK-OV-3): 86.5%; Activity [7]: 64%; growth at 10 µM (SF-268): 94.9%; IC50 (CDK9/cyclin T1): 2100 nM; growth at 10 µM (SNB-75): 68%; growth at 10 µM (SR): 67.2%; IC50 [8]: > 10000 nM; growth at 10 µM (LOX IMVI): 60.2%; growth at 10 µM (RPMI-8226): 71.2%; growth at 10 µM (HL-60(TB)): 124% |

Reference: ChEMBL document CHEMBL4229455, “Synthesis and anticancer activity of novel bisindolylhydroxymaleimide derivatives with potent GSK-3 kinase inhibition” (Bioorg Med Chem, 2018)
